# From article PMC3765866, “Identification of novel PTPRQ phosphatase inhibitors based on the virtual screening with docking simulations” (Theoretical Biology & Medical Modelling, 2013)
# Read-outs that look alike come from different tables or passages of the source.
# Experiments:
# Format in all cases: biochemical
# [1] = molecular target: T1, PTP receptor type O (PTPRO) (Homo sapiens, UniProt Q16827); test: Selectivity inhibition assay against PTPRO; conditions: read-out: % inhibition at 100 μM for PTPRO
# T1 sequence (Q16827 30-1216): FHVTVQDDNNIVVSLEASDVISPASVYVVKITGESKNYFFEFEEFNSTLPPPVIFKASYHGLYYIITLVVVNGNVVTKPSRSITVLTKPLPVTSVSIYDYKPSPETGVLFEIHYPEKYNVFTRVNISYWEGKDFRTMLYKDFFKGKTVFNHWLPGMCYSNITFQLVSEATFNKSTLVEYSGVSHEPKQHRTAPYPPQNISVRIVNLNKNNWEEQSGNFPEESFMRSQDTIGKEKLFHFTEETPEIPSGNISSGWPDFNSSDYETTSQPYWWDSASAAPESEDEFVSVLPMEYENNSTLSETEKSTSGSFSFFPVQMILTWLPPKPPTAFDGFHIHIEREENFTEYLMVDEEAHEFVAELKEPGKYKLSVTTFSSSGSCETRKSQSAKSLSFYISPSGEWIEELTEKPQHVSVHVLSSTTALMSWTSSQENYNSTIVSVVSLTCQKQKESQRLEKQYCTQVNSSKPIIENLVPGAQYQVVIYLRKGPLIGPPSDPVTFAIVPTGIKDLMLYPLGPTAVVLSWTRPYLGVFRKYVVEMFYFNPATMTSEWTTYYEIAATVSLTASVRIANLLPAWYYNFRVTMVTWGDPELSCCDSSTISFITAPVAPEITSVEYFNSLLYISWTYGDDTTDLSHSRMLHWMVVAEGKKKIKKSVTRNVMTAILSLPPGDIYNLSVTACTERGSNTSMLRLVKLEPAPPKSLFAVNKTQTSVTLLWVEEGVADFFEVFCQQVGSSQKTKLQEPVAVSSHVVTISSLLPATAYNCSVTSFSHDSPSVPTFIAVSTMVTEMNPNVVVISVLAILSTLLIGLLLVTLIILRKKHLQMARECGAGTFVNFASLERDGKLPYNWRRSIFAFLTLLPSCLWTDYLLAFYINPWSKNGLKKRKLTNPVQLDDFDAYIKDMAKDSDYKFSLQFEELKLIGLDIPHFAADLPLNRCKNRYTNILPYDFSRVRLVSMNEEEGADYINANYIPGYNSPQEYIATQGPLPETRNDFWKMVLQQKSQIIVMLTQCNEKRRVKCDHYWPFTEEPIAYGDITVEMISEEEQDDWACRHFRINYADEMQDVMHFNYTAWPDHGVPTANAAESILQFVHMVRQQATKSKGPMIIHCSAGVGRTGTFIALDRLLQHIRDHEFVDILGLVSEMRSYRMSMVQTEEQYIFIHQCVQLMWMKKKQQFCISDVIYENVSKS
# Protocol: Because the selectivity has been one of the most important issues in the development of phosphatase inhibitors, we compared the inhibitory activities of 1–6 for PTPRQ to those for its homologous protein, PTP receptor type O (PTPRO). These inhibition assays for selectivity were done in duplicates at the inhibitor concentration of 100 μM. […] The simultaneous inhibitions of PTPRQ and PTPRO by 1–6 are actually not surprising because they share a highly conserved catalytic module. To obtain the specific inhibitors for PTPRQ, therefore, it seems that some chemical groups should be added to 1–6 in such a way that the resulting derivatives can be stabilized not only in the active site but also in other peripheral binding pockets.
# PTPRQ [2] = molecular target: T2, PTPRQ (Homo sapiens, UniProt Q9UMZ3); test: PTPRQ enzyme inhibition assay monitoring hydrolysis of pNPP; conditions: for inhibition at 100 µM: inhibitor 100 μM, duplicates
# T2 construct: The catalytic domain of PTPRQ (PTPRQ-C, residues 2661–2948) was subcloned into pET28a; His tag; made in house; host or cells: Escherichia coli BL21 (DE3)
# T2 sequence (Q9UMZ3 2015-2302 limits assumed): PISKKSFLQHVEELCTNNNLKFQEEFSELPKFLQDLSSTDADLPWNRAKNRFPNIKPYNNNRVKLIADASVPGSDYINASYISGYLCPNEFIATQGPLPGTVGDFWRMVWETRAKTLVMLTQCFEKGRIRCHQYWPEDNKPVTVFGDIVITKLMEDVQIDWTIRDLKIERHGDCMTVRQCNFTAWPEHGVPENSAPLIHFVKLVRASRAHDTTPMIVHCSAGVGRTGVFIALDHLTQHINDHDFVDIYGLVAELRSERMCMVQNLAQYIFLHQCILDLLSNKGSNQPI
# Protocol: The catalytic domain of PTPRQ (PTPRQ-C, residues 2661–2948) was subcloned into pET28a and overexpressed using Escherichia coli BL21 (DE3) strain. Cells were grown at 291 K after induction with 0.1 mM IPTG for 20 hours. His-tagged PTPRQ-C was purified by nickel-affinity chromatography. 150 compounds selected from the precedent virtual screening were evaluated for their in vitro inhibitory activity against the recombinant human PTPRQ. Initial inhibitor screening was performed by monitoring the extent of hydrolysis of p-Nitrophenyl Phosphate (pNPP) with a […] assay. The purified PTPRQ-C (1.5 μM), pNPP (5 mM), and a candidate inhibitor were incubated in the reaction mixture containing 50 mM Bis-Tris (pH 6.0), 2 mM dithiothreitol for 60 minutes. This enzymatic reaction was stopped with the addition of sodium hydroxide (0.5 M). The phosphatase activities were then checked by the absorbance changes due to the hydrolysis of the substrate at 405 nm. IC50 values of the inhibitors were determined from direct regression curve analysis.
# PTPRQ [3] = molecular target: T2, PTPRQ; test: Inhibition of hydrolysis of PI(3,4,5)P3 by PTPRQ (malachite green); conditions: 1.5 μM PTPRQ-C, 300 μM PI(3,4,5)P3, 100 μM inhibitor
# Protocol: Six PTPRQ inhibitors identified under the above reaction conditions were further investigated using PI(3,4,5)P3 as the substrate (Cayman Chemical). The enzymatic activity of PTPRQ was measured in 80 μL reaction mixture containing 50 mM Tris–HCl (pH 6.0), 10 mM dithiothreitol, 300 μM PI(3,4,5)P3, 100 μM inhibitor, and 1.5 μM of the purified catalytic domain of PTPRQ. The mixture was incubated for 60 minutes at 310 K, and the enzymatic reaction was stopped by the addition of 20 μL of malachite green/ammonium molybdate reagent (Bioassay systems). The absorbance was measured at 650 nm using a plate reader.
# [4] = pNPP 5 mM substrate, 1.5 μM PTPRQ-C, pH 6.0, 60 minutes, read-out: IC50 against PTPRQ
SMILES,inhibition at 100 µM [1] [%],IC50 (PTPRQ [2]) [µM],inhibition at 100 µM (PTPRQ [2]) [%],"inhibitory activity against the hydrolysis of PI(3,4,5)P3 by PTPRQ (PTPRQ [3])","inhibition at 100 µM ([1]; inhibitor 100 μM, duplicates) [%]",IC50 (PTPRQ [2]; [4]) [µM]
CCOC(=O)Cn1cc(/C=C2/C(=O)NC(=O)N(c3cc(C)cc(C)c3)C2=O)c2ccccc21 [Compound 1],94.4 ± 0.5,29.9,71.1 ± 0.8,significant inhibitory activity,,
O=C1NC(=S)S/C1=C\c1cn(-c2ccccc2)nc1-c1ccccc1 [Compound 2],,,57.7 ± 0.4,significant inhibitory activity,94.2 ± 1.5,85.7
CN1C(=O)/C(=C/c2ccc(OCc3cccc([N+](=O)[O-])c3)cc2)S/C1=N/c1cccc(C(=O)O)c1 [Compound 3],,,50.9 ± 2.2,effect of reducing PTPRQ activity,48.7 ± 2.1,63.8
COc1cccc(-c2nn(-c3ccccc3)cc2/C=C2\SC(=S)N(CCC(=O)O)C2=O)c1 [Compound 4],,,82.6 ± 0.2,,95 ± 3.5,44.8
O=C(O)CCN1C(=O)/C(=C\c2cccc(Oc3ccccc3)c2)SC1=S [Compound 5],,,62.5 ± 1.6,,95 ± 0.8,65.3
COC(=O)c1cccc(-c2ccc(/C=C3\C(=O)N(c4cccc(C(=O)O)c4)N=C3C)o2)c1 [Compound 6],,,57 ± 2.1,effect of reducing PTPRQ activity,81.2 ± 0.9,73.1
